# According to patent US20220127337A1 (priority 2020, published 2022):
# Assays:
# [1] = test system: CoV-2 ORF3a-mediated activation of caspase 1; assay type: cell-based, human
# SARS-CoV = details: Lu W et al. Proc Natl Acad Sci USA 103, 12540-12545 (2006); cited from earlier work
smiles,measurement,setting,value
[Ba+2] [barium],CoV-2 ORF3a-mediated activation of caspase 1,[1],able to curb CoV-2 ORF3a-mediated activation of caspase 1
same,release of SARS-CoV virions,SARS-CoV,block the release of SARS-CoV virions
